Ends that are not written are not given here.
Tests used:
[1] = Dynamic Light Scattering (DLS) average diameter; assay type: physicochemical; details: in PBS
Procedure: (§1) Characterization Results: The molar mass of both unlabeled and labeled AAK20 PLPs were analyzed by SDS PAGE using a polyacrylamide gel with a pore gradient of 4-15% (cat #: 4561083) and Precision Plus Kaleidoscope Protein Standard (cat #: 1610395). The mass of both AAK20 and Cy5.5-AAK20 samples were ˜20 kDa and found to correspond with the average molecular weight of an AAK PLP with a DP of 20 (FIG. 9A). […] The diffusion rate of AAK20 in deuterated water was analyzed by Diffusion Ordered Spectroscopy (DOSY) NMR. […] Additional physical characterization of AAK20 by dry state Transmission Electron Microscopy (TEM) was performed to provide complementary data to SDS PAGE, DLS, and DOSY NMR.

[2] = Diffusion Ordered Spectroscopy (DOSY) NMR diffusion rate; assay type: physicochemical; details: in deuterated water
Procedure: ^1H Nuclear Magnetic Resonance (^1H NMR): ^1H NMR data was recorded on either a Bruker Avance III HD 500 MHz spectrometer, a Bruker Avance III 600 MHz spectrometer, or a Bruker Neo 600 MHz spectrometer. The 500 MHz spectrometer was primarily used for small molecule characterization, the Bruker Avance III 600 MHz spectrometer was used for polymerization kinetics studies, and the Bruker Neo 600 MHz spectrometer was used for diffusion ordered spectroscopy (DOSY) studies done on PLPs in deuterated buffered saline. ^1H NMR chemical shifts are given in reference to residual proton peaks from either the DMSO-d6 or the DMF-d7 solvent.
as §1

[3] = Dry state Transmission Electron Microscopy (TEM); assay type: physicochemical
Procedure: as §1

[4] = tested on: Sprague Dawley rats, IR MI; assay: Efficacy on LV function by MRI; assay type: in vivo, rat; details: tail-vein injection 1-day post-MI, MRI 3 days and 5 weeks post-injection
Procedure: Methods 5.1: Assessing Efficacy of L-PLPMMPi on LV Function. Male and female Sprague Dawley rats undergo IR procedures as previously described in Example 2. Prior to surgery, all animals undergo magnetic resonance imaging (MRI) to establish a baseline for LV ejection fraction (EF), wall thickness, end diastolic volume (EDV), and end systolic volume (ESV). […] MRI is performed at 3 days and 5 weeks (n=7 per sex for saline, MMPi, L-PLP, and L-PLPMMPi treated animals with randomized groups for each harvest timepoint) post-injection to assess cardiac function via LV EF, wall thickness, EDV, and ESV. For power analysis, an a value of 0.05 and a power of 0.8 was used to determine experimental sample sizes with additional rats based on an expected 30% mortality from surgical procedures. A 2-way ANOVA with post-hoc Tukey Test is then performed with significance at α=0.05.

Compound | average diameter by DLS [1] [nm] | diffusion rate by DOSY NMR [2] | morphology by dry state TEM [3] | LV ejection fraction (EF), pre- vs post-MI (MRI) [4] | end diastolic volume (EDV), pre- vs post-MI (MRI) [4] | end systolic volume (ESV), pre- vs post-MI (MRI) [4] | wall thickness, pre- vs post-MI (MRI) [4]
AAK20: PLP made by ROMP of norbornene AAK monomer (SEQ ID NO: 142, AAKAAKAA) at 20 molar equivalence to Grubbs catalyst; unlabeled (AAKAAKAA-NH2; also: norbornene monomer polymerized by ROMP into PLP) | < 10 | approximately 1×10^−6 cm^2/s | nanoscale globular assemblies | – | – | – | –
CC(C)[C@H](NS(=O)(=O)c1ccc(-c2ccc(Br)cc2)cc1)C(=O)O [MMPi, PD166793] | – | – | – | decreased | increased | increased | negligible differences

— patent US20260137788A1, “INFLAMMATION STIMULI RESPONSIVE PEPTIDE BRUSH POLYMERS” (NORTHWESTERN UNIVERSITY, priority 2021, published 2026)
